Here are results for 53 compounds from patent EP1900728A1 (Genecare Research Institute Co., Ltd, priority 2005, dated 2006).

The target of test [1] is T1, IκBα ubiquitinating enzyme (SCF complex: ROC1, Cullin1, Skp1, His-TrCP1; with E1, UbcH5b) (Homo sapiens, UniProt P62877+P63208+Q13616+Q9Y297).
T1 construct: His (polyhistidine); made in house; host or cells: insect cells (baculovirus) for the SCF complex and His-E1; E. coli for His-UBCH5b
Description: Measurement of ubiquitinating enzyme activity (IκBα ubiquitination, time-resolved fluorescence with Eu(K)-labeled ubiquitin and XL665-labeled anti-GST antibody). In kind it is biochemical. Summed up: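 Human SCF complex with E1 and UbcH5b ubiquitinated GST-IκBα pre-phosphorylated by IKKβ (2 mM ATP, pH 7.4, 1 h, RT), with Eu(K)-ubiquitin, 30 min RT. Stopped with EDTA, XL665 anti-GST added for 2 h; 665/620 nm TR-FRET ratio. % inhibition versus no-compound control and no-SCF blank gave IC50.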

The subject of test [2] is ICAM-1 expression in HT-29 cells. Description: Measurement of ICAM-1 expressing activity (TNFα-induced ICAM-1 expression, cell ELISA). In kind it is cell-based. The note with it: Homo sapiens, Table 6, cell activity inhibition test by method (3), read-out: EVALUATION (IC50 class, inhibition of cell activity). The method, then: Method 2: Measurement of ICAM-1 expressing activity
2.0 x 10^4 HT-29 cells (ATCC) were plated onto a 96-well plate, and the cells were cultured for 48 hours using a McCoy' 5A medium (GIBCO) containing 10% inactivated fetal calf serum. The culture medium was removed, a culture medium containing a compound to be evaluated (final DMSO concentration of 0.5%) was added, and this was incubated at 37°C for 30 minutes. Thirty ng/mL of human TNFα (GIBCO) was added, and this was incubated at 37°C for 4 hours. After washing once with a washing solution (PBS containing 0.05% Tween 20), ice-cooled methanol was added, and this was left on ice for 10 minutes and then fixed. After removing methanol, PBS containing 1% BSA was added, and blocking was performed by letting this stand at room temperature for 30 minutes. Anti-ICAM-1 antibody (Santa Cruz Biotechnology) was added, and this was left to stand at room temperature for 1 hour. After washing with the washing solution, POD-labeled secondary antibody was added, and this was left to stand at room temperature for 30 minutes. This was washed, 100 µL of 100 mM citric acid buffer (pH4.2) containing 1 mM TMBZ and 0.03% H2O2 was added, and this was reacted at room temperature for 15 minutes. The reaction was terminated with 100 µL of 2 N H2SO4, and the absorbance at 450 nm was measured using ARVO-HTS (Perkin Elmer).
When cells are stimulated with TNFα, IκBα is degraded after ubiquitination resulting in the activation of NFκB and the promotion of the expression of adhesion factor ICAM-1. Therefore, the suppression of ICAM-1 expression described above serves as an indicator to determine the effectiveness of the compound in the cells.
A general note: An ELISA detects its analyte on a solid surface through an enzyme-linked reagent.

Setting [3] is: enzyme activity inhibition test, method (1), Table 5, read-out: EVALUATION

The structures appear in SMILES notation. Read-outs that look alike come from different tables or passages of the source. Where only a bound is given, the exact number is not on record here.

T1 sequence (Q9Y297 whole entry): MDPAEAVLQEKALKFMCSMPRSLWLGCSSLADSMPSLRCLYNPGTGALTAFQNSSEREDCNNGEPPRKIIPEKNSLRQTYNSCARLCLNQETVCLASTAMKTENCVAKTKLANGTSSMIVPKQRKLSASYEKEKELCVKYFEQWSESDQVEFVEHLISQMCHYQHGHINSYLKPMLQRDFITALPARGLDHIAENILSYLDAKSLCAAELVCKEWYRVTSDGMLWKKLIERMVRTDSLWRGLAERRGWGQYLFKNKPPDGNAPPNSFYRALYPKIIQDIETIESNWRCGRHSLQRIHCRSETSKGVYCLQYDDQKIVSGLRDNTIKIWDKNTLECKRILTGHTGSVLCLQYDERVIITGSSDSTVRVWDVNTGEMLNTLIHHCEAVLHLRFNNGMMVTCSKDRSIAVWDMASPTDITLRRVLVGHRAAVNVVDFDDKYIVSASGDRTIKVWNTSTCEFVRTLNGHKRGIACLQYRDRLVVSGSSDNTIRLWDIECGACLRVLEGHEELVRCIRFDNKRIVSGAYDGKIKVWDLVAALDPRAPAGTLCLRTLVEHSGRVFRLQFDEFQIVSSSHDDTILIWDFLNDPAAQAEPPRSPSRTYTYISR
T1 sequence (Q13616 whole entry): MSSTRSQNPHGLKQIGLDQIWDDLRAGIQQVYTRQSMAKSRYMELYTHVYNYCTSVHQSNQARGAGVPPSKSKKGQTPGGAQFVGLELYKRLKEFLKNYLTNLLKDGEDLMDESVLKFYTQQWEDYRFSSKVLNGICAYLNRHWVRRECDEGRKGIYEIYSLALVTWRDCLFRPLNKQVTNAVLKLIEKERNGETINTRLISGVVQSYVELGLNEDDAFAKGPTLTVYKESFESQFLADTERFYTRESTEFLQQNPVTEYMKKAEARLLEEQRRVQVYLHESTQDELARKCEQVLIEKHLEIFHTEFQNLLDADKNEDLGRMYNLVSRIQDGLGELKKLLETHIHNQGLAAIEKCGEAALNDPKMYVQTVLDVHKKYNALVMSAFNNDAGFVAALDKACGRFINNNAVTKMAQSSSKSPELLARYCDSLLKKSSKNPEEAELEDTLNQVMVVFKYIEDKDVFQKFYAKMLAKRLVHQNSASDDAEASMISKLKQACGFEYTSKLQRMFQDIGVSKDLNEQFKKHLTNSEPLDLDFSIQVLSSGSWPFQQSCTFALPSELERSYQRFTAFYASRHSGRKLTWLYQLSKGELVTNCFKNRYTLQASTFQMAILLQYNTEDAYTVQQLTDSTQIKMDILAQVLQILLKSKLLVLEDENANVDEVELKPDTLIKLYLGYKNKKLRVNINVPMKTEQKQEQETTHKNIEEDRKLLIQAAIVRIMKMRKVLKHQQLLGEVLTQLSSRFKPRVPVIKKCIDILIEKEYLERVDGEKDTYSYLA
T1 sequence (P63208 whole entry): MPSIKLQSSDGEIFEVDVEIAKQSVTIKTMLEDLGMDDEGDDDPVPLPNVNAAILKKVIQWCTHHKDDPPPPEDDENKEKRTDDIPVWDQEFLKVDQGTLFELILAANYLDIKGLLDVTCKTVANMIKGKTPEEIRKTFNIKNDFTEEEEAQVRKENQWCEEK
T1 sequence (P62877 whole entry): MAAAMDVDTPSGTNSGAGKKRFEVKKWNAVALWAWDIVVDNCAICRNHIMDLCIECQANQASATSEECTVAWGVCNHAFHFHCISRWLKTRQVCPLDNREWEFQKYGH

Regarding `COCC1=NN(c2ccccc2)C(=O)/C1=C\c1ccc2ccccc2c1` [Compound 2], the IC50 in test [1] (setting [3]) and in test [2] was 10 to 20 µM each time.

With `COCC1=NN(c2ccccc2)C(=O)/C1=C\c1ccc(-c2ccccc2F)o1` [Compound 6], the IC50 in test [1] (setting [3]) is 10 to 20 µM; in test [2], under 40 µM.

Turning to `COc1cc(/C=C2\C(=O)N(c3ccccc3)N=C2c2ccoc2)ccc1O` [Compound 11], the IC50 is under 10 µM in test [1] (setting [3]) and under 40 µM in test [2].

Take `O=C1/C(=C\c2ccc3ccccc3c2)C(c2ccoc2)=NN1c1ccccc1` [Compound 12]: the IC50 in test [1] (setting [3]) is under 10 µM; in test [2] it was under 40 µM.

For the compound `COC(=O)N1CCN(c2ccc(/C=C3\C(=O)N(c4ccccc4)N=C3c3ccoc3)cc2)CC1` [Compound 14], the IC50 in test [1] (setting [3]) was under 10 µM; in test [2], under 40 µM.

In the case of `O=C1/C(=C\c2ccc(CO)o2)C(c2ccoc2)=NN1c1ccccc1` [Compound 16], the values for the IC50 in test [1] (setting [3]) and in test [2] were under 10 µM and 10 to 20 µM, respectively.

Turning to `CC1=NN(c2ccccc2)C(=O)/C1=C\c1ccc(-c2ccccc2F)o1` [Compound 19], the IC50 in test [1] (setting [3]) is under 10 µM; in test [2], under 40 µM.

As to `COc1cc(/C=C2\C(=O)N(c3ccccc3)N=C2Cc2ccccc2)ccc1OCc1ccccc1` [Compound 24], the values for the IC50 in test [1] (setting [3]) and in test [2] were 10 to 20 µM and under 40 µM, respectively.

As for `COC(=O)N1CCN(c2ccc(C=C3C(=O)N(c4ccccc4)N=C3Cc3ccccc3)cc2)CC1` [Compound 25], the values for the IC50 in test [1] and in test [2] were 10 to 20 µM and under 40 µM, respectively.

`O=C1/C(=C\c2ccc(CO)o2)C(Cc2ccccc2)=NN1c1ccccc1` [Compound 27]: the results for the IC50 in test [1] (setting [3]) and in test [2] were under 10 µM and 10 to 20 µM, respectively.

On to `O=C1/C(=C\c2ccc3c(c2)OCCO3)C(Cc2ccccc2)=NN1c1ccccc1` [Compound 29], for which the IC50 in test [1] (setting [3]) and in test [2] was 10 to 20 µM each time.

In the case of `COC(=O)N1CCN(c2ccc(C=C3C(=O)N(c4ccccc4)N=C3c3ccc(OC)c(OC)c3)cc2)CC1` [Compound 33], the IC50 is 10 to 20 µM in test [1] and under 40 µM in test [2].

For the compound `COc1ccc(C2=NN(c3ccccc3)C(=O)/C2=C\c2ccc3c(c2)OCCO3)cc1OC` [Compound 37], the IC50 in test [1] (setting [3]) is 10 to 20 µM; in test [2], under 40 µM.

Regarding `CCCCC1=NN(c2ccccc2)C(=O)/C1=C\c1ccc(N2CCN(C(=O)OC)CC2)cc1` [Compound 54], the IC50 in test [1] (setting [3]) was 10 to 20 µM; in test [2], under 40 µM.

For `CCCCC1=NN(c2ccccc2)C(=O)/C1=C\c1ccc(CO)o1` [Compound 56], the IC50 in test [1] (setting [3]) and in test [2] was 10 to 20 µM each time.

With `CCCCC1=NN(c2ccccc2)C(=O)C1=Cc1ccc(-n2cccn2)cc1` [Compound 58], the IC50 in test [1] was under 10 µM; in test [2], under 40 µM.

As for `COc1cc(/C=C2\C(=O)N(c3ccccc3)N=C2C2CC2)ccc1O` [Compound 69], the IC50 in test [1] (setting [3]) and in test [2] was 10 to 20 µM throughout.

On to `O=C1/C(=C\c2ccc3ccccc3c2)C(C2CC2)=NN1c1ccccc1` [Compound 70], for which the IC50 in test [1] (setting [3]) was 10 to 20 µM; in test [2], under 40 µM.

Turning to `COC(=O)N1CCN(c2ccc(C=C3C(=O)N(c4ccccc4)N=C3C3CC3)cc2)CC1` [Compound 73], the IC50 in test [1] is 10 to 20 µM; in test [2], under 40 µM.

In the case of `O=C1/C(=C\c2ccc3c(c2)OCCO3)C(C2CC2)=NN1c1ccccc1` [Compound 77], the IC50 in test [1] (setting [3]) is under 10 µM; in test [2], under 40 µM.

As for `COc1cc(/C=C2\C(=O)N(c3ccccc3)N=C2c2ccoc2)ccc1OCc1ccccc1` [Compound 94], the IC50 in test [1] (setting [3]) was under 10 µM; in test [2], under 40 µM.

Regarding `CC1=NN(c2ccc(S(N)(=O)=O)cc2)C(=O)/C1=C\c1ccc2c(c1)OCCO2` [Compound 108], the IC50 in test [1] (setting [3]) is 10 to 20 µM; in test [2], under 40 µM.

On to `CC1=NN(c2ccc(S(N)(=O)=O)cc2)C(=O)/C1=C\c1ccc(C(C)(C)C)cc1` [Compound 115], for which the IC50 was under 10 µM in test [1] (setting [3]) and 10 to 20 µM in test [2].

For the compound `CC1=NN(c2ccc(S(N)(=O)=O)cc2)C(=O)/C1=C\c1ccc2ccccc2c1` [Compound 116], the IC50 in test [1] (setting [3]) and in test [2] was 10 to 20 µM throughout.

Regarding `CC1=NN(c2ccc(S(N)(=O)=O)cc2)C(=O)/C1=C\c1ccc(-c2ccccc2)cc1` [Compound 117], the results for the IC50 in test [1] (setting [3]) and in test [2] were under 10 µM and 10 to 20 µM, respectively.

With `CC1=NN(c2ccc(S(N)(=O)=O)cc2)C(=O)/C1=C\c1ccc(F)cc1` [Compound 118], the IC50 in test [1] (setting [3]) and in test [2] was 10 to 20 µM in each case.

As to `CC1=NN(c2ccc(S(N)(=O)=O)cc2)C(=O)C1=Cc1cccc2ccccc12` [Compound 119], the IC50 in test [1] is 10 to 20 µM; in test [2], under 10 µM.

On to `CC1=NN(c2ccc(C(=O)O)cc2)C(=O)C1=Cc1ccc(N2CCC(N3CCCC3)CC2)cc1` [Compound 450], for which the IC50 in test [1] (setting [3]) is under 40 µM.

With `CC1=NN(c2ccc(C(=O)O)cc2)C(=O)C1=Cc1ccc(N2CCNCC2)cc1` [Compound 451], the IC50 in test [1] (setting [3]) lay in the range of 10 to 20 µM.

Turning to `CC1=NN(c2cccc(C(=O)O)c2)C(=O)/C1=C\c1ccc(N2CCNCC2)cc1` [Compound 452], the IC50 in test [1] (setting [3]) was under 10 µM.

In the case of `COCC1=NN(c2ccc(C(=O)O)cc2)C(=O)/C1=C\c1ccc2[nH]ccc2c1` [Compound 465], the IC50 in test [1] (setting [3]) was under 10 µM.

As to `CCCCC1=NN(c2cccc(C(=O)O)c2)C(=O)/C1=C\c1ccc2c(c1)OCCO2` [Compound 470], in test [1] (setting [3]), the IC50 lay within 10 to 20 µM.

`COCC1=NN(c2cccc(C(=O)O)c2)C(=O)/C1=C\c1ccc(N2CCCC2)cc1` [Compound 471]: in test [1] (setting [3]), the IC50 fell in the range of 10 to 20 µM.

For the compound `O=C(O)c1ccc(N2N=C(c3ccoc3)/C(=C/c3ccc4c(c3)OCO4)C2=O)cc1` [Compound 476], the IC50 in test [1] (setting [3]) is under 10 µM.

`COc1ccccc1-c1ccc(/C=C2\C(=O)N(c3cccc(C(=O)O)c3)N=C2C)o1` [Compound 487]: the IC50 in test [1] (setting [3]) is under 40 µM.

On to `O=C(O)c1cccc(N2N=C(c3ccoc3)/C(=C/c3ccc(CO)o3)C2=O)c1` [Compound 488], for which the IC50 in test [1] (setting [3]) fell in the range of 10 to 20 µM.

In the case of `CC1=NN(c2cccc(C(=O)O)c2)C(=O)/C1=C\c1ccc2c(ccn2C)c1` [Compound 493], the IC50 in test [1] (setting [3]) is under 10 µM.

Regarding `CC1=NN(c2cccc(C(=O)O)c2)C(=O)C1=Cc1ccc(-c2cnn(C)c2)o1` [Compound 495], in test [1] (read-out: EVALUATION, enzyme activity inhibition test, method (1), Table 5), the IC50 was in the range of 10 to 20 µM.

For the compound `COc1ncccc1/C=C1\C(=O)N(c2cccc(C(=O)O)c2)N=C1C` [Compound 506], the IC50 in test [1] (setting [3]) is under 40 µM.

For `CC1=NN(c2cccc(C(=O)O)c2)C(=O)/C1=C\c1cccs1` [Compound 508], the IC50 in test [1] (setting [3]) is under 40 µM.

Take `Cn1cc(-c2ccc(/C=C3\C(=O)N(c4cccc(C(=O)O)c4)N=C3Cc3ccccc3)o2)cn1` [Compound 510]: the IC50 in test [1] (setting [3]) is under 40 µM.

Take `CC1=NN(c2ccc(C(=O)O)cc2)C(=O)/C1=C\c1ccsc1` [Compound 511]: the IC50 in test [1] (setting [3]) is under 40 µM.

On to `CC1=NN(c2cccc(C(=O)O)c2)C(=O)/C1=C\c1c(C)nn(C)c1Cl` [Compound 513], for which the IC50 in test [1] (setting [3]) was under 40 µM.

On to `CC1=NN(c2ccc(C(=O)O)cc2)C(=O)/C1=C\c1c(C)nn(C)c1Cl` [Compound 514], for which the IC50 in test [1] (setting [3]) was under 40 µM.

`CC1=NN(c2cccc(C(=O)O)c2)C(=O)/C1=C\c1ccsc1` [Compound 515]: the IC50 in test [1] (setting [3]) was under 40 µM.

As for `CC(=O)OCc1ccc(/C=C2\C(=O)N(c3cccc(C(=O)O)c3)N=C2C)o1` [Compound 516], the IC50 in test [1] (setting [3]) is under 40 µM.

Turning to `CC1=NN(c2ccc(C(=O)O)cc2)C(=O)/C1=C\c1cccs1` [Compound 517], the IC50 in test [1] (setting [3]) was under 40 µM.

Take `CC1=NN(c2cccc(C(=O)O)c2)C(=O)/C1=C\c1ccc(S(=O)(=O)O)o1` [Compound 520]: the IC50 in test [1] (setting [3]) is 10 to 20 µM.

On to `CC(=O)OCc1ccc(/C=C2\C(=O)N(c3ccc(C(=O)O)cc3)N=C2C)o1` [Compound 524], for which, in test [1] (setting [3]), the IC50 is under 40 µM.

Take `CC1=NN(c2ccc(C(=O)O)cc2)C(=O)/C1=C\c1ccc(S(=O)(=O)O)o1` [Compound 525]: the IC50 in test [1] (setting [3]) lay within 10 to 20 µM.

With `COCCC1=NN(c2cccc(C(=O)O)c2)C(=O)/C1=C\c1ccc(-c2ccccc2F)o1` [Compound 526], the IC50 in test [1] (setting [3]) is under 40 µM.

`CC1=NN(c2cccc(C(=O)O)c2)C(=O)/C1=C\c1ccc2c(ccn2C(=O)c2ccccc2)c1` [Compound 529]: the IC50 in test [1] (setting [3]) is under 10 µM.

For the compound `CCCNC(=O)COc1ccc(/C=C2\C(=O)N(c3ccc(C(=O)O)cc3)N=C2C)cc1` [Compound 534], the IC50 in test [1] (setting [3]) was in the range of 10 to 20 µM.
